Structures are written as SMILES.

The source of these data is patent US5750552A, “Imidazoline derivative, possible tautomer thereof, and vulnerary including such derivative or tautomer” (Arax Co., Ltd., priority 1995, dated 1998).

Experiment [1] concerns wound in rat. Description: Healing effect on wound in rat. In kind it is in vivo, SD rats. As to conditions: for Healing days / Healing Index: 15 days; for effect on healing days and Healing Index (in words): TABLES 7 and 8. The protocol: Healing Effect on wound in rat
Male 7-week SD rats were classified into groups each consisting of 6-7 rats, such that all the groups have substantially the same average weight. The experiment was performed on the rats according to a method of Tsurumi et al. (Oyo Yakuri, Vol. 7, pp833, 1973). Initially, the rats were subjected to an anesthesia with pentobarbital. The hair of the back of each rat was clipped, and the skin was disinfected with 70% ethanol. Then, the skin was lightly pulled and punched off in a direction from the right to the left by means of a punch whose diameter is 10 mm, so as to form two open wounds on portions of the back of the rat which are symmetrical to each other with respect to the center line of the back. The compounds of Examples indicated in the following TABLES 7 and 8 were used as specimen drugs, and orally administered once a day to each of the rats with doses indicated in the TABLES 7 and 8. The oral administration continued for 15 consecutive days, beginning from the first day when the wounds were formed on the back of each rat.
To clarify the healing effect on the wounds, an Healing Index and healing days were obtained in the following manner. Initially, the lengths of a major axis and a minor axis of each wound formed on the back were measured using calipers. On the basis of the measured length values, the area of each wound was calculated as the area of an ellipse. The Healing Index was obtained according to a method of Nakano et al. (Oyo Yakuri, Vol. 47, pp29, 1994). Described more specifically, a ratio of area of each wound was chronologically represented in a graph, and an area of the lower part of a curve in the graph during a period from the fifth day to the fifteenth day after the wounds were formed was obtained as the Healing Index. […] The healing days were obtained as the number of the days that were required for the wounds to be completely covered with regenerated epidermises. As for the wound that was healed in more than 15 days, the healing days were obtained as 16 days.

In experiment [2] the test system is bFGF mRNA. Description: Effect on additional expression of bFGF mRNA in RGM1 cells (RT-PCR, band intensity). Type of experiment: cell-based, rat. Set-up: key: ++: the expression of the bFGF mRNA in the imidazoline-treated cells was considerably increased; +: the expression of the bFGF mRNA was increased to some extent. As to conditions: 48 hours, vs cells without the derivative. The text has this: Effect of imidazoline derivatives on the additional expression of the bFGF
There will be next explained an effect of the imidazoline derivatives in vitro.
Initially, there will be explained an effect of the imidazoline derivative on the additional expression of bFGF in the cells cultured. The reverse transcription-polymerase chain reaction (PCR) was used to explain the effects of imidazoline derivatives on the additional expression of bFGF, and then the PCR products were subjected to electrophoresis to confirm a bFGF band.
An established rat gastric mucosal epithelial cell line RGM1 was seeded in petri dishes (1×10^6 cells/dish), in the presence of D-MEM/Ham 12 (1:1) mixed medium containing 20% fetal calf serum. After 24 hours, the imidazoline derivatives as the specimen drugs according to the present invention were applied in the culture medium, and the cells were cultured for 48 hours. The compounds prepared in Examples 1 and 14 were used as the specimen drugs. Cultures were then supplemented with the compounds in final concentrations (10 μM and 100 μM for the compound of Example 1, and 3 μM, 10 μM and 100 μM for the compound of Example 14).
From the cultured cells of each sample subjected to the above-described processing by the specimen drugs, total cellular RNA was extracted according to Acid Guanidinium Thiocyanate-Phenol-Chloroform method (AGPC). Described more specifically, after cultivation with the above compounds in the culture medium, the culture supernatant was completely removed by suction. To the cells of each sample left in the petri dish, 500 μL of Solution D (consisting of: 4M of guanidinethiocyanate; 25 mM of sodium citrate; 0.5% sarkosyl solution, 0.1M of 2-mercaptoethanol) was added, and the cells were scraped with rubber policeman (available from SUMITOMO BAKELITE CO., LTD.). The thus obtained cell suspension was transfered into a micro centrifuge tube, and there were successively added 50 μL of 2M sodium acetate (pH 4.0), 500 μL of water-saturated phenol and 100 μL of chloroform-isoamyl alcohol (49:1). The suspension was mixed each time the above-described substances were added. The suspension was placed on ice for 15 minutes after it was intensely shaken for 1 minute. Then, the suspension was centrifuged at 10000 rpm for 20 minutes at 4° C. The aqueous layer (upper layer) was transfered into another micro centrifuge tube, and was intimately mixed with an equivalent amount of isopropanol. After the mixture was kept at -20° C. for one hour, it was centrifuged at 10000 rpm for 20 minutes at 4° C. After the centrifugation, the upper layer was discarded, and a precipitate of mRNA was completely dissolved in 200 μL of Solution D. The thus obtained solution was mixed again with an equivalent amount of isopropanol and the mixture was kept at -20° C. for one hour. The mixture was then subjected to centrifugation for 20 minutes at 4° C. and 10000 rpm. After the centrifugation, the supernatant was discarded, and the precipitate was centrifuged at 10000 rpm for 10 minutes at 4° C. The supernatant was discarded, while the precipitate was dried in vacuo for 5 minutes. The total RNA was dissolved in 50 μL of distilled water processed by diethyl pyrocarbonate (DEPC). The concentration of total RNA was measured on the basis of its absorbance at 260 nm by ultraviolet spectrum.
The CDNA synthesis was performed by means of Reverse Transcriptase using the above obtained total RNA as a template. As a primer, a random primer was employed. […]

The subject of experiment [3] is water-immersion restraint stress-induced gastric ulcer. Kind of experiment: Inhibitory effect on water-immersion restraint stress-induced gastric ulcer. The conditions noted are these: 10 mg/kg oral, 30 min before stress. Type of experiment: in vivo, SD rats. The protocol: Inhibitory effect on water-immersion restraint stress-induced gastric ulcer
Male 7-week SD rats were fasted for 24 hours, with a fast of water beginning in early morning of the day when the experiments were performed. The rats were classified into groups each consisting of five rats, such that all the groups have substantially the same average weight. Thirty minutes before giving a stress to the rats, the compounds of the Examples indicated in TABLE 3 were orally administered as specimen drugs to the rats, with a dose of 10 mg/kg. The rats were then kept in stress cages, and were given a stress by immersing the cages in a water bath kept at a substantially constant temperature of 23°±1° C., such that the water level was at the height of the xiphoid of the rats. Seven hours later, the specimen rats were sacrificed by ether, and the gastric mucosa of each rat was semi-fixed with 2% formaline. The longitudinal length of the damaged area of the gastric mucosa was measured. A sum of the measured length values of the rats of each group was calculated as an ulcer index. An anti-ulcer or ulcer inhibitory percent (%) was calculated as {1-(ulcer index of each group of specimen rats)/(ulcer index of non-specimen group)}×100.

For experiment [4], the system named is bFGF. Description: Production amount of bFGF in RGM1 culture supernatant (ELISA). In kind it is cell-based, Wistar rat. As to conditions: not stated which. Here is the method: Effect of imidazoline derivatives on the additional expression of bFGF
Initially, RGM1 cells which are derived from a gastric mucosa epithelial cell of a Wistar rat were seeded into 24 well plates (2×10^4 cells/dish, 1 mL/well), and cultured for 24 hours. As the imidazoline derivative according to the present invention, the compound obtained in Example 14 was used. The compound was applied to the cells in final concentrations of 3 μM, 10 μM and 30 μM. After 24 hours, the culture supernatants which correspond to the respective concentration values were collected, and analyzed using bFGF ELISA kit. Similarly, the culture supernatants were collected 48 hours after the application of the compound. Described more specifically, 50 μL of each culture supernatant was applied to a 96 well microplate coated with bFGF monoclonal antibody. The plate was incubated for a predetermined time so that the bFGF contained in each culture supernatant was bonded to the bFGF monoclonal antibody. Thereafter, each supernatant was reacted with horseradish peroxidase conjugated antibody which is able to recognize another epitope of the bFGF, so as to form, on the 96 well microplate, a sandwich type composite body consisting of immobilized antibody (bFGF monoclonal antibody), antigen (bFGF), and HRP linked antibody. Subsequently, HRP linked antibody of the composite body was colored using o-phenylenediamine and H2 O2. The reaction was terminated by using sulfuric acid after a predetermined time has elapsed. Then, the absorbance of reactant at 490 nm was measured using a micro-platereader. The production amount of the bFGF was obtained for each culture supernatant, on the basis of the measured absorbance values, according to a standard curve prepared for a standard bFGF of a human body.

Experiment [5] concerns gastric acid secretion in a pylorus ligated rat. Description: Inhibitory effect on the gastric acid secretion in a pylorus ligated rat. Type of experiment: in vivo, SD rats. The conditions noted are these: 4 hours. Here is the method: Inhibitory effect on the gastric acid secretion in a pylorus ligated rat Male 7-week SD rats were fasted for 24 hours, with a fast of water beginning in early morning of the day when the experiments were performed. The rats were classified into groups each consisting of five rats, such that all the groups have substantially the same average weight. The experiments were performed according to a method of Shay et. al. (Shay, H. et. al., Gastroenterology, Vol. 5, pp43, 1945). Described more specifically, each of the rats was subjected to a light anesthesia by ether, and the hair of the abdomen of each rat was clipped. Then, the abdomen was incised over a length of 1.5 cm along the center line downwards from a portion 1 cm below the xiphoid of the rat, and the stomach was taken out of the body. A portion connecting the pylorus and the duodenum was ligated by suturing thread. […] After the administration, the skin of the abdominal muscle and abdomen was sutured. The rats were kept in cages and fasted for 4 hours with a fast of water. Then, the rats were sacrificed by ether, and the stomach of each rat was removed. The gastric content was obtained from a small hole formed through the stomach of each rat and was collected in a test tube. […] An amount of supernatant was measured as a volume of gastric acid, and a total acidity of the gastric acid was also measured. A volume of gastric acid inhibitory percent (%) and a total acidity inhibitory percent (%) were calculated in the same manner as the ulcer inhibitory percent was calculated. The total acidity was obtained as a product of the amount of gastric acid secreted for 4 hours and the acidity per 1 mL of the gastric acid which was subjected to neutralization titration by an aqueous solution of 0.01N sodium hydroxide.

Turning to `CC1(C)N=C([S+]([O-])Cc2ccccc2NC(=O)C(F)(F)F)NC1=S` (centres unmarked) [Example 1, 2-(2-N-trifluoroacetylaminobenzylsulfinyl)-5,5-dimethylimidazolin-4-thione], the Healing days is listed as 14.4 ± 0.38 days in experiment [1] (TABLE 7, 50 mg/kg oral once a day, control 15.1 ± 0.22) and 14.2 ± 0.37 days in experiment [1] (TABLE 7, 100 mg/kg oral once a day, control 15.1 ± 0.22). Also, the “Healing Index” value in experiment [1] (TABLE 7, 50 mg/kg oral once a day, control 188.3 ± 18.2) was found to be 183.2 ± 11.2; in experiment [1] (TABLE 7, 100 mg/kg oral once a day, control 188.3 ± 18.2), 157.5 ± 18.9. For the same molecule, the “effect on healing days and Healing Index (in words)” value in experiment [1] was “effective to reduce the healing days and lower the Healing Index”. The “Band Intensity” value in experiment [2] (10 μM) and in experiment [2] (100 μM) was “+” each time.

Regarding `CCC1(CC)N=C([S+]([O-])Cc2ccccc2N(C)C)NC1=S` (centres unmarked) [Example 7, 2-(2-dimethylaminobenzylsulfinyl)-5,5-diethylimidazolin-4-thione], the “Inhibitory Percent (ulcer)” value in experiment [3] is reported as 53.9%.

Take `CC1(C)N=C([S+]([O-])Cc2ccccc2NCC(F)(F)F)NC1=S` (centres unmarked) [Example 12, 2-[2-N-(2,2,2-trifluoroethyl)aminobenzylsulfinyl]-5,5-dimethylimidazolin-4-thione]: in experiment [3], the “Inhibitory Percent (ulcer)” value is reported as 46.6%.

`CC(C)CN(C)c1ccccc1C[S+]([O-])C1=NC(C)(C)C(=S)N1` (centres unmarked) [Example 14, 2-(2-N-isobutyl-N-methylaminobenzylsulfinyl)-5,5-dimethylimidazolin-4-thione]: the Healing days in experiment [1] (TABLE 8, 50 mg/kg oral once a day, control 14.3 ± 0.37) amounted to 13.5 ± 0.42 days; in experiment [1] (TABLE 8, 100 mg/kg oral once a day, control 14.3 ± 0.37) it was 13.6 ± 0.44 days. Moreover, the “Healing Index” value in experiment [1] (TABLE 8, 50 mg/kg oral once a day, control 152.0 ± 9.5) is 116.5 ± 7.0; in experiment [1] (TABLE 8, 100 mg/kg oral once a day, control 152.0 ± 9.5), 126.5 ± 8.3. Besides, the “effect on healing days and Healing Index (in words)” value in experiment [1] is “effective to reduce the healing days and lower the Healing Index”. The “Band Intensity” value in experiment [2] (3 μM), in experiment [2] (10 μM) and in experiment [2] (100 μM) was “++” each time. For the same molecule, the “Production amount of bFGF” value is reported as 15 pg/mL in experiment [4] (concentration of drug 3, 24 or 48 hours); 29 pg/mL in experiment [4] (concentration of drug 10, 24 or 48 hours); 36 pg/mL in experiment [4] (concentration of drug 30, 24 or 48 hours).

Take `CN/C(=N/CCSCc1nc[nH]c1C)NC#N` [cimetidine]: the “Total acidity Inhibitory percent” value in experiment [5] (10 mg/kg intraduodenal) was 27.7%; in experiment [5] (30 mg/kg intraduodenal) it was 51.8%; in experiment [5] (100 mg/kg intraduodenal), 76.1%. For the same molecule, the figures for the “Volume of Gastric acid Inhibitory percent” value in experiment [5] (10 mg/kg intraduodenal), in experiment [5] (30 mg/kg intraduodenal) and in experiment [5] (100 mg/kg intraduodenal) were 22.7%, 31.2% and 52.8%, respectively.
